Data: patent US6472396B1, “Barbituric acid derivatives, processes for their production and pharmaceutical agents containing these compounds” (Roche Diagnostics GmbH, priority 1995, dated 2002)
Where two headings read alike, the source gives them in different places.

Molecular target: T1, MMP-8 (Homo sapiens, UniProt P22894)
T1 construct: catalytic domain (Met80-Gly242) of human neutrophil collagenase; made in house
Experiment: Inhibition of MMPs (HNC catalytic domain), fluorogenic heptapeptide substrate DNP-Pro-Leu-Gly-Leu-Trp-Ala-D-Arg-NH2
Assay type: biochemical
Description: In order to determine the inhibition of MMPs, for example HNC, the catalytic domain (isolation and purification see for example Schnierer, S., Kleine, T., Gote, T., Hillemann, A., Knäuper, V., Tschesche, H., Biochem. Biophys. Res. Commun. (1993) 191, 319-326) is incubated with inhibitors having various concentrations. Subsequently, the initial reaction rate in the conversion of a standard substrate is measured in a manner analogous to Grams F. et al., FEBS 335 (1993) 76-80).
The results are evaluated by plotting the reciprocal reaction rate against the concentration of the inhibitor. The inhibition constant (Ki) is obtained as the negative section of the abscissis by the graphical method according to Dixon, M., Biochem. J. (1953) 55, 170-202.
The synthetic collagenase substrate is a heptapeptide which is coupled, at the […], with DNP (dinitrophenol). Said DNP residue quenches by steric hindrance the fluorescence of the adjacent tryptophane of the heptapeptide. After cleavage of a tripeptide which includes the DNP group, the tryptophane fluorescence increases. The proteolytic cleavage of the substrate therefore can be measured by the fluorescence value.
The assay was performed at 25° C. in a freshly prepared 50 mM Tris buffer (pH 8.0) treated with dithiozone to remove traces of heavy metals. 4 mM CaCl2 was added and the buffer saturated wtih argon. Stock solutions of adamalysin II were prepared by centrifugation of the protein from an ammonium sulfate suspension and subsequent dissolution in the assay buffer. Stock solutions of collagenase were diluted with the assay buffer. Enzyme concentrations were determined by uv measurements (ε280=2.8 10^4 M1 cm^−1, ε288: 2.2 10^4 M^−1 cm^−1) and the stock solutions were stored in the cold. This solution was diluted 1:100 to obtain the final 16 nM assay concentration. The fluorogenic substrate DNP-ProLeu-Gly-LeuTrp-Ala-D-Arg-NH2 with a Km of 52 μM was used at a concentration of 21.4 μM; for the Ki determination a 12.8 μM concentration has also been used. Substrate fluorescence was measured at an excitation and emission wavelength of λ=320 and 420 nm, respectively, on a spectrofluorimeter (Perkin Elmer, Model 650-40) equipped with a thermostated cell holder. Substrate hydrolysis was monitored for 10 min. immediately after adding the enzyme. All reactions were performed at least in triplicate. The Ki values—of the inhibitors were calculated from the intersection point of the straight lines obtained by the plots of vo/vi vs. [concentration of inhibitor], whereas IC50 values were calculated from plots of vi/vo [concentration of inhibitor] by non-linear regression with simple robust weighting.
50 mM Tris/HCl pH 7.6 (Tris=Tris-(hydroxymethyl)-aminomethan)
100 mM NaCl/10 mM CaCl 2/5% MeOH (ff necessary)
Enzyme: 8 nM catalytic domain (Met80-Gly242) of human neutrophil collagenase
Substrate: 10 microM DNP-Pro-Leu-Gly-Leu-Trp-Ala-D-Arg-NH2
A solution of the enzyme and inhibitor in assay buffer (25° C.) was prepared. The reaction was started directly by giving the substrate into the solution. The cleavage of the flourogenic substrate was followed by flourescence spectroscopy with an excitation and emision wavelength of 280 and 350 nm, respectively. The IC50 value was calculated as the inhibitor concentration, which is necessary to decrease the velocity of the reaction to the half in comparison to the reaction without inhibitor.

[1] = MMP-8 (catalytic domain of human neutrophil collagenase), 25° C., read-out: IC-50

T1 sequence (P22894 100-262 limits assumed): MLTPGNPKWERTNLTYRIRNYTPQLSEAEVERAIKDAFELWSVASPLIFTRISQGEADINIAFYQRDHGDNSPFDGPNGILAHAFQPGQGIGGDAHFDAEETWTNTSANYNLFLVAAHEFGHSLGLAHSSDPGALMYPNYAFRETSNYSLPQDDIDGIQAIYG

Compound | IC50 [1] [nM] | IC50 [nM]
O=C1NC(=O)C(NC(=O)c2cccc3c2C(=O)c2ccccc2-3)(c2ccccc2)C(=O)N1 [example 32.74, 9-Oxo-9H-fluorene-1-carboxylic acid (2,4,6-trioxo-5-phenyl-hexadro-pyrimidin-5-yl)-amide] | 890 | 
5-[N-(2-Hydroxyethyl)piperazinyl]-5-(4-hydroxyphenyl)barbituric Acid [example 20] | 860 | 
O=C1NC(=O)C(c2ccccc2)(N2CCN(c3ccc([N+](=O)[O-])cc3)CC2)C(=O)N1 [example 32.77, 5-[4-(4-Nitro-phenyl)-piperazin-1-yl)-5-phenyl-pyrimidine-2,4,6-trione] |  | 160
5-Octyl-5-[N-(2-hydroxyethyl)piperazinyl]barbituric Acid [example 23] | 110 | 
5-Decyl-5-[N-(2-hydroxyethyl)piperazinyl]barbituric Acid [example 28] | 320 | 
O=C1NC(=O)C(c2ccc(-c3ccccc3)cc2)(N2CCN(c3ccc([N+](=O)[O-])cc3)CC2)C(=O)N1 [example 26, 5-(4′-Biphenyl)-5-[N-(4-nitrophenyl)piperazinyl]barbituric Acid] | 15 | 
CCCCCCCCC1(N2CCN(c3ccc([N+](=O)[O-])cc3)CC2)C(=O)NC(=O)NC1=O [preferred no. 118] | 60 | 
O=C1NC(=O)C(c2ccccc2)(N(Cc2ccccc2)C(=O)Cc2cccc(Br)c2)C(=O)N1 [preferred no. 120, N-Benzyl-2-(3-bromo-phenyl)-N-(2,4,6-trioxo-5-phenyl-hexahydro-pyrimidin-5-yl)-acetamide] |  | 150
